27 compounds from patent US20260035338A1, “AMINO LIPID COMPOUND AND LIPID NANOPARTICLE FOR DELIVERING BIOACTIVE INGREDIENT” (SHENZHEN SHENXIN BIOTECHNOLOGY CO., LTD., priority 2022, published 2026) can be followed below.

The subject of this test is BALB/c mice. Nature of the test: In vivo delivery of Fluc mRNA-encapsulating LNP formulations, luciferase signal by In Vivo Imaging System (IVIS). The note with it: tail vein injection (IV) 70 μL, female BALB/c mice, 6 hours after injection; for Average number of photons (Total in-vivo flux): LNP formulation encapsulating Fluc mRNA (Lipid:DSPC:CHO-HP:M-DMG-2000 48:10:40.5:1.5); for Average number of photons (Liver) / Average number of photons (Spleen): LNP formulation encapsulating Fluc mRNA. The method, then: Animal preparation: Female BALB/c mice of 6-8 weeks old were selected and raised in an SPF grade breeding room. Animal testing was conducted in strict accordance with the guidelines of national health institutions and animal ethics requirements.
In vivo Delivery: prior to injection of the test LNP formulation, the LNP formulation was gently and repeatedly inverted to thoroughly mix the sample of the formulation. A corresponding amount of the LNP formulation was aspirated with a 1 ml insulin syringe, and the LNP formulation was injected by tail vein injection (IV), with 3 mice in duplicate per formulation. Each mouse was injected with 70 μL of the corresponding LNP formulation encapsulating the luciferase mRNA (Fluc mRNA) prepared in Experimental Example 1.
6 hours after injection of LNP formulations, mice were injected with 200 μL D-Luciferin luciferase developing substrate (Catalog No. 122799; Manufacturer: Perkin Elmer). After the substrate was injected, the mice were anesthetized with isoflurane inhalation, and the injection time of luciferase developing substrate was recorded.
The encapsulation efficiency of the lipid nanoparticle encapsulating luciferase mRNA (Fluc mRNA) with a representative amino lipid compound and the fluorescence expression intensity induced by the same are shown in Table 4, with the LNP formulation containing SM-102, 1001 or ALC-0315 as a control LNP formulation. The preparation method of the control LNP formulation was basically the same as that of the LNP formulations in Experimental Example 1, with the difference lying in that the amino lipid compounds of the present disclosure were replaced with SM-102, 1001 or ALC-0315 in the preparation of the control LNP formulation.

The structures appear in SMILES notation.

As for `CCCCCCCCC(CCCCCC)C(=O)OCCCCCCN(CCCCO)CCCCCCOC(=O)C(CCCCCC)CCCCCCCC` (stereo not drawn) [ALC-0315, reference compound], the “Average number of photons (Total in-vivo flux)” value is recorded as 6.39E+08, the “Average number of photons (Liver)” value turned out to be 1.23E+08 and the “Average number of photons (Spleen)” value turned out to be 3.45E+06.

For the compound `CCCCCCCCCCCOC(=O)CCCCCN(CCO)CCCCCCCC(=O)OC(CCCCCCCC)CCCCCCCC` [SM-102, reference compound], the “Average number of photons (Total in-vivo flux)” value is 3.00E+08, the “Average number of photons (Liver)” value is reported as 6.19E+07 and the “Average number of photons (Spleen)” value is recorded as 6.42E+06.

Consider `CCCCCCOC(CCCOC(=O)CCCCCCCCC(CCCCCCCCC(=O)OCCCC(OCCCCCC)OCCCCCC)OC(=O)N(CCCC(=O)OCCCCC)CCCN(C)C)OCCCCCC` [compound 380], for which the “Average number of photons (Total in-vivo flux)” value is on record as 4.05E+08, the “Average number of photons (Liver)” value is given as 7.25E+07 and the “Average number of photons (Spleen)” value is given as 6.79E+07.

On to `CCCCCCCOC(CCCOC(=O)CCCCCCCCC(CCCCCCCCC(=O)OCCCC(OCCCCCCC)OCCCCCCC)OC(=O)N(CCCC(=O)OCCCCC)CCCN(C)C)OCCCCCCC` [compound 381], for which the “Average number of photons (Total in-vivo flux)” value stood at 2.46E+08, the “Average number of photons (Liver)” value is reported as 4.40E+07 and the “Average number of photons (Spleen)” value worked out at 1.96E+07.

Turning to `CCCCCCCOC(CCCOC(=O)CCCCCCCCC(CCCCCCCCC(=O)OCCCC(OCCCCCCC)OCCCCCCC)OC(=O)OCCCN(CC)CC)OCCCCCCC` [compound 383], the “Average number of photons (Total in-vivo flux)” value came to 6.10E+07, the “Average number of photons (Liver)” value is recorded as 8.57E+06 and the “Average number of photons (Spleen)” value came to 1.53E+06.

`CCCCCOC(CCCOC(=O)CCCCCCCCC(CCCCCCCCC(=O)OCCCC(OCCCCC)OCCCCC)OC(=O)OCCCN(CC)CC)OCCCCC` [compound 387]: the “Average number of photons (Total in-vivo flux)” value is 6.66E+07, the “Average number of photons (Liver)” value was 7.15E+06 and the “Average number of photons (Spleen)” value was determined as 6.77E+05.

With `CCCCCCOC(CCCCCOC(=O)CCCCCCCCC(CCCCCCCCC(=O)OCCCCCC(OCCCCCC)OCCCCCC)OC(=O)OCCCN(CC)CC)OCCCCCC` [compound 389], the “Average number of photons (Total in-vivo flux)” value is given as 2.99E+07, the “Average number of photons (Liver)” value stood at 4.14E+06 and the “Average number of photons (Spleen)” value was 8.58E+04.

In the case of `CCCCCOC(CCCCCOC(=O)CCCCCCCCC(CCCCCCCCC(=O)OCCCCCC(OCCCCC)OCCCCC)OC(=O)OCCCN(CC)CC)OCCCCC` [compound 390], the “Average number of photons (Total in-vivo flux)” value is 5.23E+07, the “Average number of photons (Liver)” value came to 7.04E+06 and the “Average number of photons (Spleen)” value worked out at 3.84E+05.

Consider `CCC/C=C\COC(CCCOC(=O)CCCCCCCCC(CCCCCCCCC(=O)OCCCC(OC/C=C\CCC)OC/C=C\CCC)OC(=O)OCCCN(CC)CC)OC/C=C\CCC` [compound 392], for which the “Average number of photons (Total in-vivo flux)” value turned out to be 8.20E+07, the “Average number of photons (Liver)” value came to 1.50E+07 and the “Average number of photons (Spleen)” value was 6.65E+05.

As for `CCCCCCOC(CCCOC(=O)CCCCCCCCC(CCCCCCCCC(=O)OCCCC(OCCCCCC)OCCCCCC)NC(=O)OCCCN(CC)CC)OCCCCCC` [compound 393], the “Average number of photons (Total in-vivo flux)” value turned out to be 2.80E+08, the “Average number of photons (Liver)” value amounted to 5.44E+07 and the “Average number of photons (Spleen)” value was found to be 1.00E+07.

For the compound `CCCCCCOC(CCCOC(=O)CCCCCCCCC(CCCCCCCCC(=O)OCCCC(OCCCCCC)OCCCCCC)OC(=O)OCCCN1CCCC1)OCCCCCC` [compound 396], the “Average number of photons (Total in-vivo flux)” value amounted to 1.85E+08, the “Average number of photons (Liver)” value was found to be 3.24E+07 and the “Average number of photons (Spleen)” value amounted to 9.78E+05.

As for `CCCCCCOC(CCCOC(=O)CCCCCCCCC(CCCCCCCCC(=O)OCCCC(OCCCCCC)OCCCCCC)OC(=O)OCCC1CCCN1C)OCCCCCC` (stereo not drawn) [compound 398], the “Average number of photons (Total in-vivo flux)” value is on record as 1.79E+08, the “Average number of photons (Liver)” value is on record as 2.78E+07 and the “Average number of photons (Spleen)” value is on record as 6.36E+05.

As for `CCCCCCOC(CCCOC(=O)CCCCCCCCC(CCCCCCCCC(=O)OCCCC(OCCCCCC)OCCCCCC)OC(=O)NCCCN1CCCCC1C)OCCCCCC` (stereo not drawn) [compound 399], the “Average number of photons (Total in-vivo flux)” value amounted to 9.00E+07, the “Average number of photons (Liver)” value was determined as 1.96E+07 and the “Average number of photons (Spleen)” value is 2.05E+06.

For the compound `CCCCCCOC(CCCOC(=O)CCCCCCCCC(CCCCCCCCC(=O)OCCCC(OCCCCCC)OCCCCCC)OC(=O)OCC1CCCN(C)C1)OCCCCCC` (stereo not drawn) [compound 416], the “Average number of photons (Total in-vivo flux)” value was 2.16E+08, the “Average number of photons (Liver)” value is recorded as 5.13E+07 and the “Average number of photons (Spleen)” value was found to be 3.99E+06.

For the compound `CCCCCCCCC(=O)OCCCCCCCCOC(=O)CCCCCCCCC(CCCCCCCCC(=O)OCCCC(OCCCCCC)OCCCCCC)OC(=O)OCCCN(CC)CC` (stereo not drawn) [compound 433], the “Average number of photons (Total in-vivo flux)” value was determined as 2.56E+07, the “Average number of photons (Liver)” value was 3.83E+06 and the “Average number of photons (Spleen)” value was found to be 2.44E+05.

Consider `CCCCCCCCC(CCCCCCCC)OC(=O)CCCCCCCOC(=O)CCCCCCCCC(CCCCCCCCC(=O)OCCCC(OCCCCCC)OCCCCCC)OC(=O)OCCCN(CC)CC` (stereo not drawn) [compound 434], for which the “Average number of photons (Total in-vivo flux)” value is 2.50E+07, the “Average number of photons (Liver)” value worked out at 3.52E+06 and the “Average number of photons (Spleen)” value stood at 1.40E+05.

For `CCCCCCOC(CCCOC(=O)CCCCCCCCC(CCCCCCCCC(=O)OCCCCCCCC(=O)OCC)OC(=O)OCCCN(CC)CC)OCCCCCC` (stereo not drawn) [compound 436], the “Average number of photons (Total in-vivo flux)” value was 2.50E+07, the “Average number of photons (Liver)” value came out at 6.68E+06 and the “Average number of photons (Spleen)” value stood at 5.08E+05.

As for `CCCCCCC#CCCOC(=O)CCCCCCCOC(=O)CCCCCCCCC(CCCCCCCCC(=O)OCCCC(OCCCCCC)OCCCCCC)OC(=O)OCCCN(CC)CC` (stereo not drawn) [compound 437], the “Average number of photons (Total in-vivo flux)” value was 1.66E+07, the “Average number of photons (Liver)” value was 2.66E+06 and the “Average number of photons (Spleen)” value is listed as 2.62E+06.

On to `CCC/C=C\COC(=O)CCCOC(=O)CCCCCCCCC(CCCCCCCCC(=O)OCCCC(OC/C=C\CCC)OC/C=C\CCC)OC(=O)OCCCN(CC)CC` (stereo not drawn) [compound 438], for which the “Average number of photons (Total in-vivo flux)” value amounted to 5.78E+07, the “Average number of photons (Liver)” value was determined as 8.47E+06 and the “Average number of photons (Spleen)” value came out at 1.07E+06.

Regarding `CCCCCCCC#CCOC(CCCOC(=O)CCCCCCCCC(CCCCCCCCC(=O)OCCCCCCCCCCOC)OC(=O)OCCCN(CC)CC)OCC#CCCCCCCC` (stereo not drawn) [compound 439], the “Average number of photons (Total in-vivo flux)” value is listed as 5.87E+07, the “Average number of photons (Liver)” value is 1.25E+07 and the “Average number of photons (Spleen)” value is given as 1.96E+06.

Turning to `CCCCCCOCCCCOC(=O)CCCCCCCCC(CCCCCCCCC(=O)OCCCC(OCCCCCC)OCCCCCC)OC(=O)OCCCN(CC)CC` (stereo not drawn) [compound 440], the “Average number of photons (Total in-vivo flux)” value is 2.30E+08, the “Average number of photons (Liver)” value is recorded as 3.22E+07 and the “Average number of photons (Spleen)” value is 2.14E+06.

With `CCCCCCCCC(=O)OCCCCCCCCOC(=O)CCCCCCCCC(CCCCCCCCC(=O)OCCCC(OCCCCCC)OCCCCCC)OC(=O)OCCCN(CC)CC` (stereo not drawn) [compound 441], the “Average number of photons (Total in-vivo flux)” value was determined as 3.09E+07, the “Average number of photons (Liver)” value was 5.62E+06 and the “Average number of photons (Spleen)” value is 5.52E+05.

For `CCCCCCCCOCCCC(=O)N(CCCN(C)C)C(CCCCCCCCC(=O)OCCCC(OCCCCCC)OCCCCCC)CCCCCCCCC(=O)OCCCC(OCCCCCC)OCCCCCC` [compound 449], the “Average number of photons (Total in-vivo flux)” value is 1.65E+08, the “Average number of photons (Liver)” value is reported as 2.94E+07 and the “Average number of photons (Spleen)” value is listed as 7.31E+06.

`CCCCCCOC(CCCOC(=O)CCCCCCCCC(CCCCCCCCC(=O)OCCCC(OCCCCCC)OCCCCCC)N(CCCN(C)C)C(=O)COC)OCCCCCC` [compound 450]: the “Average number of photons (Total in-vivo flux)” value stood at 4.38E+07, the “Average number of photons (Liver)” value came out at 7.96E+05 and the “Average number of photons (Spleen)” value is given as 3.18E+06.

With `CCCCCCOC(CCCOC(=O)CCCCCCCCC(CCCCCCCCC(=O)OCCCC(OCCCCCC)OCCCCCC)N(CCCN(C)C)C(C)=O)OCCCCCC` [compound 451], the “Average number of photons (Total in-vivo flux)” value was found to be 2.86E+07, the “Average number of photons (Liver)” value turned out to be 4.63E+06 and the “Average number of photons (Spleen)” value is reported as 1.74E+07.

For the compound `CCCCCCOC(CCCOC(=O)CCCCCCCCC(CCCCCCCCC(=O)OCCCC(OCCCCCC)OCCCCCC)N(CCCN(C)C)C(=O)CCC)OCCCCCC` [compound 452], the “Average number of photons (Total in-vivo flux)” value is given as 3.27E+08, the “Average number of photons (Liver)” value worked out at 4.94E+07 and the “Average number of photons (Spleen)” value was found to be 2.22E+07.

Consider `CCCCCCOC(CCCOC(=O)OCCCCCCCCCC(CCCCCCCCCOC(=O)OCC(OCCCCCC)OCCCCCC)OC(=O)OCCCN(CC)CC)OCCCCCC` (stereo not drawn) [compound 457], for which the “Average number of photons (Total in-vivo flux)” value was determined as 1.43E+07, the “Average number of photons (Liver)” value came to 1.55E+06 and the “Average number of photons (Spleen)” value worked out at 2.70E+06.
